Measurements taken from article PMC6917776, “Discovery of a chemical probe for PRDM9” (Nature Communications, 2019).

Test system: H3K4me3 at known PRDM9 binding loci and control TSS loci
Assay: ChIP-qPCR of H3K4me3 in PRDM9-transfected HEK293T cells
Type: cell-based, human
Settings: Replicate 1; for 2^-dCq (H3K4me3 ChIP relative to H3 ChIP): Figure 7 C, Antibody H3K4me3; for 2^-dCq: H3K4me3 ChIP normalised to H3; for dCq (IP-Input): H3K4me3 antibody
Experimental: ChIP-qPCR assays were then conducted on known PRDM9 binding loci[26]. Ectopic expression of PRDM9^WT increased trimethylation of H3K4 (H3K4me3) at previously described PRDM9-specific intragenic and intergenic regions[26] (Fig. 7; Supplementary Fig. 12). […] The observed increases in H3K4me3 levels at intragenic and intergenic regions are therefore due directly to PRDM9 PR domain-dependent methylation activity, rather than through recruitment of other H3K4 methyltransferases or other indirect mechanisms.
ChIP qPCR analyses of H3K4me3 methylation levels of known PRDM9-bound loci and control loci. […] Concentrations used (µM) are indicated below each plot. (a–d) represent reported loci of PRDM9 methylation; (e, f) are transcriptional start sites (TSSs) which are not known loci of PRDM9 methylation. Data are normalized to total H3 and are presented as the mean ± upper and lower limits from two replicates. Representative plots of two independent experiments are shown in this figure. The coordinates and the genomic features associated with the assayed loci are indicated above each plot. Left Tailed Student's t-tests were performed by comparing DMSO (0 µM) treated cells to compound treated cells that have been transfected with the same plasmids. *p-value < 0.05 and **p-value < 0.01. Note that here we show a representative of two independent experiments (mean ± s.d of technical replicates) for our ChIP-qPCR experiments. Data obtained using this technique are inherently noisy due to stochastic differences in gene activity/histone positioning. Data are thus typically presented as representative rather than averaged. Source data are provided as a Source Data file.
HEK293T cells were transfected with 37.5 μg empty pcDNA3.1(+) vector (Invitrogen), or the same vector expressing either wild-type PRDM9 (PRDM9^WT) or a catalytically dead PRDM9 mutant (PRDM9^Mut) and 75 μL of Lipofectamine 2000 (Invitrogen) in 6 mL of Opti-MEM (GIBCO) for 48 h. […] ChIP assays were then performed as previously described. Briefly, cells were fixed in 1% formaldehyde and the fixation reaction was quenched in a final concentration of 0.1 M glycine. Cell pellets were first lysed in LB1 (50 mM HEPES-KOH pH 7.5, 140 mM NaCl, 1 mM EDTA, 10% Glycerol, 0.5% Igepal, 0.25% TritonX), washed once in LB2 Buffer (10 mM Tris-HCl pH 8, 200 mM NaCl, 1 mM EDTA, 0.5 mM EGTA) and finally sonicated in LB3 buffer (10 mM Tris-HCl pH 8, 100 mM NaCl, 1 mM EDTA, 0.5 mM EGTA, 0.1% Sodium deoxycholate, 0.5% N-laurosylsarcosine) using a bioruptor (Diagenode). Thereafter, 50 μg of chromatin was subjected to ChIP using the following antibodies purchased from Abcam: α-H3K4me3 (1:200, ab8580, lot:GR3207339-1) and α-H3 (1:250, ab1791, lot:GR300978-4). After extensive washing in RIPA wash buffer (50 mM HEPES-KOH pH 7.6, 100 mM LiCl, 1 mM EDTA, 1% Igepal, 0.7% Sodium Deoxycholate), DNA was eluted from beads. The eluted DNA was treated with RNase A and Proteinase K and purified using the QIAGEN PCR purification kit. qPCR was then carried out targeting the indicated loci (Supplementary Table 3). Upper and lower limits were defined by |2^−(dCq±s) − 2^−(∆Cq)|, where s = √((Standard deviation of Input Cq)^2 + (Standard deviation of Target Cq)^2). […]
formation. ChIP qPCR analyses of H3K4me3 methylation levels at known PRDM9-bound and control loci. Cells transfected with empty vector (negative control) or vectors overexpressing either wild-type PRDM9 (PRDM9 WT) or catalytically dead PRDM9 (PRDM9 MUT) were […]
Panels a-d represent reported loci of […]
(1 picture or pasted object on this page, not shown here)
PRDM9 methylation; e-f are TSSs which are not known sites of PRDM9 methylation. Data are normalized to total H3 and are presented as the mean ± upper and lower limits from two […]

[1] = chr2:40281930-40282015 Intragenic (SLC8A1-AS1), Empty Vector
[2] = chr2:40281930-40282015 Intragenic (SLC8A1-AS1), PRDM9
[3] = chr2:40281930-40282015 Intragenic (SLC8A1-AS1), PRDM9_Cat.Dead
[4] = chr2:128811847-128811944 (Intergenic), Empty Vector
[5] = chr2:128811847-128811944 (Intergenic), PRDM9
[6] = chr2:128811847-128811944 (Intergenic), PRDM9_Cat.Dead
[7] = chr3:165514798-165514911 Intragenic (BCHE), Empty Vector
[8] = chr3:165514798-165514911 Intragenic (BCHE), PRDM9
[9] = chr3:165514798-165514911 Intragenic (BCHE), PRDM9_Cat.Dead
[10] = chr8:49932778-49932856 (Intergenic), Empty Vector

Compound: COc1cc(OC)cc(-c2noc(N3CCN(C)C4(CCN(c5ccnc(C)c5)CC4)C3)n2)c1 [MRK-740]
- 2^-dCq (H3K4me3 ChIP relative to H3 ChIP) (chr2:40281930-40282015 Intragenic (SLC8A1-AS1), Plasmid Empty Vector, Drug Conc. 2.5): 0.4152
- 2^-dCq (H3K4me3 ChIP relative to H3 ChIP) (chr2:40281930-40282015 Intragenic (SLC8A1-AS1), Plasmid Empty Vector, Drug Conc. 5): 0.3238
- 2^-dCq (H3K4me3 ChIP relative to H3 ChIP) (chr2:40281930-40282015 Intragenic (SLC8A1-AS1), Plasmid Empty Vector, Drug Conc. 10): 0.507
- 2^-dCq (H3K4me3 ChIP relative to H3 ChIP) (chr2:40281930-40282015 Intragenic (SLC8A1-AS1), Plasmid PRDM9WT, Drug Conc. 2.5): 3.2145
- 2^-dCq (H3K4me3 ChIP relative to H3 ChIP) (chr2:40281930-40282015 Intragenic (SLC8A1-AS1), Plasmid PRDM9WT, Drug Conc. 5): 2.572
- 2^-dCq (H3K4me3 ChIP relative to H3 ChIP) (chr2:40281930-40282015 Intragenic (SLC8A1-AS1), Plasmid PRDM9WT, Drug Conc. 10): 2.028
- 2^-dCq [1]: 0.4145
- 2^-dCq [2]: 3.496
- 2^-dCq [3]: 0.3605
- 2^-dCq [4]: 0.4852
- 2^-dCq [5]: 2.263
- 2^-dCq [6]: 0.5507
- 2^-dCq [7]: 0.3297
- 2^-dCq [8]: 5.1
- 2^-dCq [9]: 0.2515
- 2^-dCq [10]: 0.5103
- 2^-dCq (chr8:49932778-49932856 (Intergenic), PRDM9): 4.604
- 2^-dCq (chr8:49932778-49932856 (Intergenic), PRDM9_Cat.Dead): 0.4888
- 2^-dCq (chr12:6643945-6644023 TSS (GAPDH), Empty Vector): 45.392
- 2^-dCq (chr12:6643945-6644023 TSS (GAPDH), PRDM9): 42.4818
- 2^-dCq (chr12:6643945-6644023 TSS (GAPDH), PRDM9_Cat.Dead): 88.4248
- 2^-dCq (chr19:8510167-8510261 TSS (HNRNPM), Empty Vector): 50.4703
- 2^-dCq (chr19:8510167-8510261 TSS (HNRNPM), PRDM9): 42.5896
- 2^-dCq (chr19:8510167-8510261 TSS (HNRNPM), PRDM9_Cat.Dead): 88.2214
- dCq (IP-Input) [1]: 1.27
- dCq (IP-Input) [2]: -1.806
- dCq (IP-Input) [3]: 1.472
- dCq (IP-Input) [4]: 1.0432
- dCq (IP-Input) [5]: -1.178
- dCq (IP-Input) [6]: 0.8606
- dCq (IP-Input) [7]: 1.601
- dCq (IP-Input) [8]: -2.351
- dCq (IP-Input) [9]: 1.992
- dCq (IP-Input) [10]: 0.9707
